According to patent EP3366695B1, “SAPOSIN-A DERIVED PEPTIDES AND USES THEREOF” (Children's Medical Center Corporation, priority 2009, dated 2021):

Tests used:
Tsp-1 [1] = test: Tsp-1 expression in WI-38 lung fibroblasts, western blot; assay type: cell-based, human
Description: For Western blotting, cells were harvested by mechanical scraping into 4°C PBS, cell pellets were obtained by removing PBS after centrifugation at 13,000rpm in a Heraeus Biofuge Fresco (Thermo Electron, Asheville, NC) for 2 min. Cells were then lysed in 50 mM Tris-HCl (pH 7.4), 150 mM NaCl, 1 % NP40, 1 mM sodium orthovanadate, 5 mM NaF, 20 mM β-glycerophosphate, and complete protease inhibitor (Roche, Indianapolis, IN) and protein concentrations were determined by the BioRad protein assay (BioRad, Hercules, CA). Fifty micrograms of protein were loaded per well onto a 4-12 % pre-cast Bis-Tris gel (BioRad, Hercules, CA). The protein extracts were electrophoresed and transferred to an immobilon-P membrane (Millipore, Bedford, MA). The membranes were blocked in 5 % nonfat milk and incubated in primary antibody to Tsp-1 (Ab-11, LabVision, Fremont, CA), c-Myc and phospho-Myc (Cell Signaling Technology, Beverly, MA), Prosaposin (Santa Cruz Biotechnology, Santa Cruz, CA), β-actin (AbCam, Cambridge, UK). […] Protein volume intensity was determined using a Bio-Rad Chemi-Doc XRS system (Bio-Rad, CA). […]
Seven 20-amino acid (20-mer) peptides derived from saposin A were tested for ability to stimulate Tsp-1 expression in fibroblasts. […] WI-38 lung fibroblasts were treated with these peptides overnight and the Tsp-1 expression was analyzed by Western blot analysis. […]

p53 [2] = test: p53 expression in WI-38 fibroblasts, western blot; assay type: cell-based, human; details: cyclic 13-mer plus D4476
MDM2 = MDM2 protein levels in WI-38 fibroblasts, western blot; assay type: cell-based, human; details: cyclic 13-mer plus D4476
Tsp-1 [3] = test: Tsp-1 expression in prostate fibroblasts, western blot; assay type: cell-based, human; details: PC3 conditioned media in the presence of the inhibitor
Description: (§1) Methods of assaying the effects of mutant, fragment or variant Psap on Tsp-1 and p53 expression are described herein. Briefly, full-length, mutant, fragment and variant Psap are applied to the cell cultures prostate fibroblast. The conditioned media from PC3M-LN4 (LN4) and PC3 cells are used as controls, with PC3 as positive/stimulating control and LN4 as negative/inhibiting controls. After a period of […] (∼16 h), the cells are harvested, rinsed, and lysed. The lysates are analyzed for the level of Tsp-1 and p53 expression by western blot analyses, with β-actin as the internal lysate protein loading control. […]
(§2) For Western blotting, cells were harvested by mechanical scraping into 4°C PBS, cell pellets were obtained by removing PBS after centrifugation at 13,000rpm in a Heraeus Biofuge Fresco (Thermo Electron, Asheville, NC) for 2 min. Cells were then lysed in 50 mM Tris-HCl (pH 7.4), 150 mM NaCl, 1 % NP40, 1 mM sodium orthovanadate, 5 mM NaF, 20 mM β-glycerophosphate, and complete protease inhibitor (Roche, Indianapolis, IN) and protein concentrations were determined by the BioRad protein assay (BioRad, Hercules, CA). […] Protein volume intensity was determined using a Bio-Rad Chemi-Doc XRS system (Bio-Rad, CA).

p53 [4] = test: p53 expression in prostate fibroblasts, western blot; assay type: cell-based, human; details: PC3 conditioned media in the presence of the inhibitor
Description: as §1, §2

thrombospondin-1 (Tsp-1) = test: Tsp-1 expression in lungs and livers of treated mice, western blot; assay type: in vivo
Description: The 20-mer […] (SEQ. ID. No. 29) was tested in vivo in mice for their ability to induce Tsp-1 expression. Four mice were treated with the 20-amino acid peptide (residues 31-50 of saposin A) at a dose of 30mg/kg/day in combination with 200uL of conditioned media (CM) from the metastatic prostate cancer cell line PC3M-LN4. […] Another four mice were treated with CM from PC3M-LN4 alone, and a control group of four mice with treated with vehicle (PBS) alone. […] Mice were treated for 9 days after which they were sacrificed and the lungs and livers were harvested and lysed. Tissue lysates were then run on a 4-12% gradient bis-tris polyacrylamide gel and transferred to a nitrocellulose membrane for western blotting with antibodies specific for thrombospondin-1 (Tsp-1) and β-actin.

[5] = mice treated for 9 days, relative to control (vehicle PBS)
[6] = mice, 30mg/kg/day with 200uL PC3M-LN4 CM, 9 days, compared to PC3M-LN4 CM

Compound: NC(=O)c1ccc(-c2nc(-c3ccc4c(c3)OCCO4)c(-c3ccccn3)[nH]2)cc1 [D4476]
- Tsp-1 protein levels (Tsp-1 [1]; WI-38 fibroblasts, cyclic 13-mer plus D4476): reduction of Tsp-1 and p53
- p53 protein levels (p53 [2]): reduction of Tsp-1 and p53
- MDM2 protein levels (MDM2): increase in MDM2 protein levels

Compound: COc1ccc2c(c1)c(C1=C(c3c[nH]c4ccccc34)C(=O)NC1=O)cn2CCCN(C)C [Gö 6983]
- stimulation of Tsp-1 by PC3 CM (Tsp-1 [3]): abolished the stimulation of Tsp-1 and p53
- stimulation of p53 by PC3 CM (p53 [4]): abolished the stimulation of Tsp-1 and p53

Compound: LEKTCDWLPKPNMSASCKEI [20-mer, 20-mer peptide, residues 31-50 of saposin A]
- Tsp-1 expression (Tsp-1 [1]; WI-38 fibroblasts treated with peptide): able to stimulate Tsp-1 expression
- Tsp-1 expression in the liver (thrombospondin-1 (Tsp-1); [5]): stimulated Tsp-1 expression over control
- Tsp-1 expression in the lung (thrombospondin-1 (Tsp-1); [5]): stimulated Tsp-1 expression over control
- stimulated expression of Tsp-1 in the liver (thrombospondin-1 (Tsp-1); [6]): 4 fold
- stimulated expression of Tsp-1 in the lung (thrombospondin-1 (Tsp-1); [6]): 6 fold
- level of stimulation of Tsp-1 (thrombospondin-1 (Tsp-1); mice, 9 days, compared with positive control PC3 conditioned media): greater than that of the weakly metastatic pancreatic cancer cell line PC3
